Measured values published in PMC10439952, “JT002, a small molecule inhibitor of the NLRP3 inflammasome for the treatment of autoinflammatory disorders” (Scientific Reports, 2023).

Key:
NLRP3 inflammasome = NLRP3 inflammasome (Mus musculus, UniProt Q8R4B8); test: Inhibition of IL-1β production in mouse BMDMs stimulated by LPS + ATP; type: cell-based; set-up: host or cells: mouse PBMCs; mouse bone-marrow derived macrophages; mouse whole blood (C57BL/6 in the ex vivo study); conditions: Mouse BMDM, read-out: Geo Av IC50, IL-1β
Protocol: Inflammasome activation and whole blood assays were essentially carried out as described earlier. Details can be found in the supplementary information section accompanying this publication. A protocol for blood draws from healthy volunteers and use of the blood in preclinical assays was approved by Western Institutional Review Board, Inc (Puyallup, WA, USA). Informed consent was obtained from each donor prior to the first blood draw.
Cell viability was determined by addition of an equal volume of CellTiter-Glo® 2.0 reagent (Promega) to the remaining cells/supernatant in each well. Intracellular Caspase-1 activity was measured using the Caspase-Glo® assay (Promega) according to the manufacturer’s instructions. The biochemical capsase-1 assay was conducted at Reaction Biology Corporation (Malvern, USA). Human IL-1β, IL-1α, and TNFα and mouse IL-1β were measured in cell culture supernatants using homogeneous time resolved fluorescence assay kits (HTRF, Cisbio, Codolet, France). Human IL-18 was measured in cell culture supernatants using an ELISA kit (R&D Systems, Minneapolis, MN, USA). Plasma IL-1β concentrations were determined by Quantikine® ELISA (R&D Systems, Minneapolis, MN).
4H). MS: m/z 433.1 (M+H+). […]

[1] = biological target: T1, NLRP3 inflammasome assembly (ASC speck) (Mus musculus, UniProt Q8R4B8); test: Inhibition of ASC speck formation by immunofluorescence in LPS + nigericin treated mouse BMDMs; type: cell-based
T1 construct: host or cells: mouse PBMCs; mouse bone-marrow derived macrophages; mouse whole blood (C57BL/6 in the ex vivo study)
Protocol: Mouse BMDMs (2.5 × 10^4 cells/well) were plated in Collagen-IV coated 96-well plates. On the day of the assay, cells were washed with serum-free media then primed with 100 ng/mL LPS for 3 h in DMEM/F12 (1:1) containing L-glutamine. JT002 or DMSO was added to each well and incubated at 37 °C for 30 min prior to stimulation with 10 μM nigericin for 1.5 h. Cells were briefly centrifuged, rinsed with PBS, and fixed with 4% formaldehyde in PBS overnight at 4 °C. Cells were blocked and permeabilized in PBS with 10% goat serum, 1% FBS, 0.5% Triton X-100 for 30 min at 37 °C and incubated with ASC antibody (Millipore-Sigma, Cat #04-147) overnight at 4 °C. Cells were incubated with anti-mouse IgG Alexa Fluor-488 for 1 h at 37 °C. Nuclei were stained with Hoechst 33342 in PBS for 5 min and imaged using a CellInsight CX7 High-Content Screening Platform (ThermoFisher) at Phenovista Biosciences (San Diego, CA, USA).

T1 sequence (Q8R4B8 whole entry): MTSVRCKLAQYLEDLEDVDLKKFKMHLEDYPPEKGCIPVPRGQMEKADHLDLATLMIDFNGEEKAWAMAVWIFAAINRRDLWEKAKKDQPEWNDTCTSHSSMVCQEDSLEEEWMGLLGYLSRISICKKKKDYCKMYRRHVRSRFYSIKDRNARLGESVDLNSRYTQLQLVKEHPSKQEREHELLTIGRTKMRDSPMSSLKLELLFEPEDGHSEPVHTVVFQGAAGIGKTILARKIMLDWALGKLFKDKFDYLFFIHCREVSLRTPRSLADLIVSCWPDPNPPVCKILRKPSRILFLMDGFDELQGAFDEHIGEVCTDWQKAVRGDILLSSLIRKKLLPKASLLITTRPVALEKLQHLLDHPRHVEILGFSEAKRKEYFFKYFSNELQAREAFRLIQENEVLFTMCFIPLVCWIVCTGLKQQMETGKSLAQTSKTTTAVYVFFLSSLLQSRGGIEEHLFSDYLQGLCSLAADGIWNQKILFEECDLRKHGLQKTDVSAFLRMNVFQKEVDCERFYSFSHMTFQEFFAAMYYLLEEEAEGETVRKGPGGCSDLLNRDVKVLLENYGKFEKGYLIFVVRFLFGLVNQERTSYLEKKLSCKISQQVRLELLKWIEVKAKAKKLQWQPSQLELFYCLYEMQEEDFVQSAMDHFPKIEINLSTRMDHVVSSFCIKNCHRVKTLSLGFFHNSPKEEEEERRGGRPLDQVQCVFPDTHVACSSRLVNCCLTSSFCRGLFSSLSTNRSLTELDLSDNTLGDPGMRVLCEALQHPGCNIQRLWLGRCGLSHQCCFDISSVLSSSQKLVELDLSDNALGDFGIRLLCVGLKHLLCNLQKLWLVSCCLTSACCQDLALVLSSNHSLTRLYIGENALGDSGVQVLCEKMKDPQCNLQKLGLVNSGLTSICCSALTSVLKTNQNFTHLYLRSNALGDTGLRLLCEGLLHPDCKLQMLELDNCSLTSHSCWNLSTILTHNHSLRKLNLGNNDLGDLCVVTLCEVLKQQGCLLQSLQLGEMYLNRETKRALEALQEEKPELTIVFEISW
Chain of NLRP3 inflammasome (Q8R4B8 whole entry): as above

CO[C@@H]1COc2c(S(=O)(=O)NC(=O)Nc3c4c(cc5c3CCC5)CCC4)cnn2C1 [JT002]
IC50 (NLRP3 inflammasome): 5 nM
IC50 ([1]; Mouse BMDM, read-out: Geo Av IC50, ASC specks): 3 nM
ASC speck formation ([1]; mBMDMs, 2 µM JT002 prior to NLRP3 activation): completely prevented ASC speck formation
